Tests used:
A549 = assay: MTT reduction proliferation test, 72 h incubation; assay type: cell-based; conditions: A 549 cells
Description: (§1) Des cellules tumorales L1210, A549 et HT29, à une concentration de 5.10³/ml dans un milieu RPMI, sont incubées dans des plaques de microtitration contenant 96 puits, pendant 72 heures (37°C, 5 % CO₂, 95 % d'humidité relative) avec différentes concentrations de chacun des glycosides (anthracyclines) conformes à l'invention.
(§2) Les témoins consistent en cellules tumorales exposées à un milieu de culture. Quatre puits sont préparés pour chaque concentration en glycoside et pour le témoin. Après 65 heures, 50 µl de MTT (2,5 mg/ml dans du PBS) sont ajoutés.
(§3) Le MTT sera réduit, en présence de cellules vivantes en un colorant formazan rouge insoluble. Après 7 à 24 heures d'incubation supplémentaire, le surnageant est enlevé. Le colorant formazan est solubilisé par l'addition de 100 µl de DMSO dans chaque puits, suivie d'une agitation douce.
(§4) L'extinction est mesurée pour chaque puits, à 492 nm (photomètre Multiscan 340 CC Fa. Flow).
(§5) Les résultats sont exprimés comme le rapport de l'extinction après incubation avec les glycosides sur l'extinction obtenue avec les témoins. Le coefficient de variation est inférieur à 15 %.

L1210 [1] = assay: MTT reduction proliferation test, 72 h incubation; assay type: cell-based; conditions: L1210 cells
Description: as §1, §2, §3, §4, §5

HT29 = assay: MTT reduction proliferation test, 72 h incubation; assay type: cell-based; conditions: HT 29 cells
Description: as §1, §2, §3, §4, §5

L1210 [2] = assay: In vivo antitumour effect on L1210 ascites leukemia in mice; design: species or system souris BDF1; conditions: for L1210 T/C %: 3 x 1.p./ 1.p. Q3D, BDF1 mice
Description: Un liquide d'ascite est prélevé dans les conditions aseptiques chez des souris DBA2 (femelle, 18 - 20 g) le septième jours après l'implantation.
L'ascite est lavée trois fois avec du PBS, comptée et finalement diluée dans du PBS, de manière à obtenir 10⁶ cellules/0,2 ml.
10⁶ cellules dans 0,2 ml de P BS sont injectées dans le peritoine de souris DBA2 pour la propagation de la lignée cellulaire.
10⁶ cellules dans 0,2 ml de PBS sont injectés intrapériotonéalement à des souris BDF1 (femelle 18 - 20 g), 6 animaux/group sont utilisés pour chaque concentration de substance et pour le contrôle.
• a) les animaux sont pesés le premier jour et le cinquième jour après l'administration du médicament. Une perte de poids supérieure à 20 % le cinquième jour est utilisée comme indicateur d'effet toxique du produit. • b) à la fin de l'expérience, (mort de tous les animaux ou soixantième jour de l'essai), le temps moyen de survie des animaux, dans tous les groupes ayant plus de 65 % de survivants au cinquième jour, est évalué selon des procédures standard.
Les animaux survivants au soixantième jour sont considérés comme des survivants de longue durée (LTS : Long Time Survivors) et sont répertoriés séparément.
A partir du temps de survie moyen des groupes traités (MSTT) et des groupes contrôle (MSTC), l'effet antitumoral (T/C) est évalué en fonction de la formule suivante : [formula]
Les valeurs T/C de plus de 125 % sont considé-rées comme des indicateurs d'un effet antitumoral significatif.

[3] = Acute toxicity in mice (Litchfield Wilcoxon); assay type: in vivo, souris NMRI; conditions: 3 x i.p., NMRI mice, deaths counted after two weeks
Source text: La substance à tester est injectée à des souris NMRI selon le protocole tel que précisé dans le Tableau IV, ci-après.
Après deux semaines, le nombre total d'animaux décédés dans chaque groupe est calculé et les DL₅₀ sont évaluées en utilisant la méthode de Litchfield Wilcoxon.

For CCCCC1OC(OC2CC(O)(C(C)=O)Cc3c(O)c4c(c(O)c32)C(=O)c2c(OC)cccc2C4=O)CC(OC(C)=O)C1OC(C)=O (centres unmarked) [20 c, acétoxy-3′ O-acétyl-4′ désamino-3′ propyl-6′ daunorubicine], the “CI₅₀ TEST AU MTT A 549” value (A549) was > 1 µg/mL, the “CI₅₀ TEST AU MTT L1210” value (L1210 [1]) was > 1 µg/mL and the “CI₅₀ TEST AU MTT HT 29” value (HT29) was > 1 µg/mL.
In the case of CCC1(O)CC(OC2CC(OC(C)=O)C(OC(C)=O)C(C)O2)c2c(O)c3c(c(O)c2C1O)C(=O)c1cccc(O)c1C3=O [21 a, O-(di-O-acétyl-3′,4′ didésoxy-2′,6′-α-L-thréo-hexopyrannosyl)-7 β-Rhodomycinone], the “L1210 T/C %” value (L1210 [2]; 10.00 mg/kg/Inj.) was 134%, the “L1210 T/C %” value (L1210 [2]; 13.30 mg/kg/Inj.) was 152% and the “L1210 T/C %” value (L1210 [2]; 17.70 mg/kg/Inj.) was 146%. For the same compound, the Morts toxiques (L1210 [2]; 17.70 mg/kg/Inj., 6 animals/group) was 1/6, the “CI₅₀ TEST AU MTT A 549” value (A549) was 0,086 µg/ml and the “CI₅₀ TEST AU MTT L1210” value (L1210 [1]) was 0,03 µg/ml. For the same compound, the “CI₅₀ TEST AU MTT HT 29” value (HT29) was 0,038 µg/ml and the DL₅₀ [3] was > 21.3.
With CC[C@@H]1O[C@@H](O[C@H]2C[C@](O)(CC)[C@H](O)c3c(O)c4c(c(O)c32)C(=O)c2c(O)cccc2C4=O)C[C@H](OC(C)=O)[C@@H]1OC(C)=O [21 b, O-(di-O-acétyl-3′-4′ tridésoxy-2′,6′,7′-α-L-thréo-heptopyrannosyl)-7 β-Rhodomycinone] the “CI₅₀ TEST AU MTT A 549” value (A549) was 0,46 µg/ml, the “CI₅₀ TEST AU MTT L1210” value (L1210 [1]) was 0,51 µg/ml and the “CI₅₀ TEST AU MTT HT 29” value (HT29) was > 1 µg/mL.
For CCCCC[C@@H]1O[C@@H](O[C@H]2C[C@](O)(CC)[C@H](O)c3c(O)c4c(c(O)c32)C(=O)c2c(O)cccc2C4=O)C[C@H](OC(C)=O)[C@@H]1OC(C)=O [21 c, O-(di-O-acétyl-3′,4′hexadésoxy-2′,6′,7′,8′,9′,10′-α-L-thréodécapyrannosyl)-7 β-Rhodomycinone], the “CI₅₀ TEST AU MTT A 549” value (A549) was > 1 µg/mL, the “CI₅₀ TEST AU MTT L1210” value (L1210 [1]) was > 1 µg/mL and the “CI₅₀ TEST AU MTT HT 29” value (HT29) was > 1 µg/mL.
With CC[C@@H]1O[C@@H](O[C@H]2C[C@](O)(CC)[C@H](O[C@@H]3C[C@H](OC(C)=O)[C@H](OC(C)=O)[C@H](CC)O3)c3c(O)c4c(c(O)c32)C(=O)c2c(O)cccc2C4=O)C[C@H](OC(C)=O)[C@@H]1OC(C)=O [22 b, Di-O-(di-O-acétyl-3′,4′tridésoxy-2′,6′,7′-α-L-thréoheptopyrannosyl)-7,10 β-Rhodomycinone] the “CI₅₀ TEST AU MTT A 549” value (A549) was > 1 µg/mL, the “CI₅₀ TEST AU MTT L1210” value (L1210 [1]) was > 1 µg/mL and the “CI₅₀ TEST AU MTT HT 29” value (HT29) was > 1 µg/mL.
In the case of CCCCCC1OC(OC2CC(O)(CC)C(OC3CC(OC(C)=O)C(OC(C)=O)C(CCCCC)O3)c3c(O)c4c(c(O)c32)C(=O)c2c(O)cccc2C4=O)CC(OC(C)=O)C1OC(C)=O [22 c, di-O-(di-O-acétyl-3′,4′ hexadésoxy-2′,6′,7′,8′,9′, 10′-α-L-thréodécapyrannosyl)-7,10 β-Rhodomycinone], the “CI₅₀ TEST AU MTT A 549” value (A549) was > 1 µg/mL, the “CI₅₀ TEST AU MTT L1210” value (L1210 [1]) was > 1 µg/mL and the “CI₅₀ TEST AU MTT HT 29” value (HT29) was > 1 µg/mL.

From patent EP0341154A2, “Analogues of L-fucose, process for their preparation, their application for the preparation of glycals, anthracycline derivatives of the glycals and the use of the anthracyclines as medicaments” (priority 1988, dated 1989)
